Data taken from PubChem BioAssay (NCI).
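Briefly, cells in 96-well plates were exposed to five compound concentrations for 48 h, and endpoints were estimated by linear interpolation. TGI marks complete inhibition of growth.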

What was measured:
Test in all cases: NCI-60 cell line screen, 48 h
[1] = system: T-47D breast
[2] = system: SN12C renal
[3] = system: SF-539 CNS
[4] = system: KM12 colon
[5] = system: OVCAR-3 ovarian
[6] = system: MCF7 breast
[7] = system: SK-MEL-5 melanoma
[8] = system: EKVX NSCLC
[9] = system: RXF 393 renal
[10] = system: CCRF-CEM leukemia
[11] = system: SF-295 CNS
[12] = system: K-562 leukemia
[13] = system: HOP-62 NSCLC
[14] = system: A498 renal
[15] = system: HCT-15 colon
[16] = system: OVCAR-8 ovarian
[17] = system: OVCAR-5 ovarian
[18] = system: SNB-75 CNS
[19] = system: HCT-116 colon
[20] = system: HS 578T breast
[21] = system: MALME-3M melanoma
[22] = system: MOLT-4 leukemia
[23] = system: SNB-19 CNS
[24] = system: SW-620 colon
[25] = system: PC-3 prostate
[26] = system: MDA-MB-231 breast
[27] = system: NCI-H23 lung
[28] = system: A549 NSCLC
[29] = system: MDA-N
[30] = system: ACHN renal
[31] = system: UACC-257 melanoma
[32] = system: NCI-H522 lung
[33] = system: U251 CNS
[34] = system: LOX IMVI melanoma
[35] = system: SF-268 CNS
[36] = system: 786-0 renal
[37] = system: HOP-92 NSCLC
[38] = system: NCI/ADR-RES ovarian
[39] = system: MDA-MB-435
[40] = system: DU-145 prostate
[41] = system: HL-60(TB) leukemia
[42] = system: HT29 colon
[43] = system: NCI-H460 lung
[44] = system: SK-MEL-28 melanoma
[45] = system: M14 melanoma
[46] = system: IGROV1 ovarian
[47] = system: UO-31 renal
[48] = system: CAKI-1 renal
[49] = system: NCI-H226 lung
[50] = system: SR leukemia
[51] = system: COLO 205 colon
[52] = system: RPMI-8226 leukemia
[53] = system: HCC-2998 colon
[54] = system: UACC-62 melanoma
[55] = system: SK-MEL-2 melanoma
[56] = system: OVCAR-4 ovarian
[57] = system: TK-10 renal
[58] = system: BT-549 breast
[59] = system: SK-OV-3 ovarian

C=C(C)[C@@H]1CC[C@]2(C(=O)OC)CC[C@]3(C)[C@H](CC[C@@H]4[C@@]5(C)CC[C@H](O)C(C)(C)[C@@H]5CC[C@]43C)[C@@H]12
TGI [1]: 34 µM
TGI [2]: 35.1 µM
TGI [3]: 34.9 µM
TGI [4]: > 100 µM
TGI [5]: 40.1 µM
TGI [6]: 41.6 µM
TGI [7]: 41.3 µM
TGI [8]: 45.1 µM
TGI [9]: 38.9 µM
TGI [10]: 48.9 µM
TGI [11]: 34.4 µM
TGI [12]: 47 µM
TGI [13]: 41.3 µM
TGI [14]: 36.7 µM
TGI [15]: 50.6 µM
TGI [16]: 51.2 µM
TGI [17]: 55.4 µM
TGI [18]: 59 µM
TGI [19]: 37.4 µM
TGI [20]: 56.5 µM
TGI [21]: 53 µM
TGI [22]: 44.6 µM
TGI [23]: 39.5 µM
TGI [24]: 38.8 µM
TGI [25]: 34.8 µM
TGI [26]: > 100 µM
TGI [27]: > 100 µM
TGI [28]: 37.7 µM
TGI [29]: 42.7 µM
TGI [30]: 32.9 µM
TGI [31]: 38.3 µM
TGI [32]: 40.6 µM
TGI [33]: 35.8 µM
TGI [34]: 34.6 µM
TGI [35]: 67.3 µM
TGI [36]: 45.9 µM
TGI [37]: 41.3 µM
TGI [38]: 51.7 µM
TGI [39]: 42.5 µM
TGI [40]: > 100 µM
TGI [41]: > 100 µM
TGI [42]: 60 µM
TGI [43]: 38.4 µM
TGI [44]: 47.2 µM
TGI [45]: > 100 µM
TGI [46]: 42.2 µM
TGI [47]: 49.1 µM
TGI [48]: 39.6 µM
TGI [49]: 44.4 µM
TGI [50]: > 100 µM

c1ccc(N=C2c3ccsc3C(=Nc3ccccc3)c3ccsc32)cc1
TGI [51]: 6.01 µM
TGI [1]: 4.06 µM
TGI [2]: 3.02 µM
TGI [3]: 3.83 µM
TGI [4]: 6.35 µM
TGI [52]: 11.7 µM
TGI [5]: 6.55 µM
TGI [6]: 4.79 µM
TGI [7]: 2.35 µM
TGI [8]: 4.31 µM
TGI [9]: 3.52 µM
TGI [10]: 15 µM
TGI [11]: 3.11 µM
TGI [12]: 10.4 µM
TGI [13]: 3 µM
TGI [14]: 14.8 µM
TGI [15]: 4.12 µM
TGI [16]: 5.68 µM
TGI [17]: 3.12 µM
TGI [18]: 2.45 µM
TGI [19]: 3.89 µM
TGI [20]: 6.04 µM
TGI [21]: 0.921 µM
TGI [22]: 3.77 µM
TGI [23]: 3.88 µM
TGI [24]: 3.93 µM
TGI [25]: 9.44 µM
TGI [26]: 4.5 µM
TGI [27]: 3.03 µM
TGI [53]: 7.25 µM
TGI [28]: 4.1 µM
TGI [29]: 0.554 µM
TGI [30]: 3.04 µM
TGI [31]: 2.67 µM
TGI [32]: 4.34 µM
TGI [33]: 4.01 µM
TGI [34]: 1.38 µM
TGI [35]: 6.82 µM
TGI [54]: 3.9 µM
TGI [36]: 6.25 µM
TGI [37]: 9.37 µM
TGI [38]: 14.4 µM
TGI [39]: 0.378 µM
TGI [55]: 3.38 µM
TGI [40]: 3.12 µM
TGI [56]: 3.32 µM
TGI [41]: 4.2 µM
TGI [57]: 13.7 µM
TGI [42]: 13.7 µM
TGI [43]: 4.03 µM
TGI [44]: 3.97 µM
TGI [45]: 2.32 µM
TGI [58]: 3.6 µM
TGI [46]: 4 µM
TGI [47]: 3.74 µM
TGI [48]: 10.2 µM
TGI [49]: 11.4 µM
TGI [59]: 16.3 µM
